Read-outs that look alike come from different tables or passages of the source.
Details: for Qualitative Tmax (urine collection with greatest excretion): 12h urine collections, np = no peak; for Cmax (nmol excreted) / Tmax: urine; for Cmax (nmol excreted): mean ± SD; for Tmax: female, Sprague Dawley, rat, po

| Compound | Qualitative Tmax (urine collection with greatest excretion) (High dose (1000 mg/kg bw)) | Cmax (nmol excreted) (High dose (1000 mg/kg bw)) | Qualitative Tmax (urine collection with greatest excretion) (Low dose (75 mg/kg bw)) | Cmax (nmol excreted) (Low dose (75 mg/kg bw)) | Qualitative Tmax (urine collection with greatest excretion) (Medium dose (350 mg/kg bw)) | Cmax (nmol excreted) (Medium dose (350 mg/kg bw)) | Tmax (350 mg/kg) [h] | Tmax (1000 mg/kg) [h] | Tmax (75 mg/kg) [h] | Time of maximal urinary excretion after dosing (as stated in text/figure legend, doses not separated) [h] |
| --- | --- | --- | --- | --- | --- | --- | --- | --- | --- | --- |
| COc1ccc(CC(=O)O)cc1O [3-OH-4-OMe-PAA] | np | np | np | np | np | np |  |  |  |  |
| COc1ccc(CCC(=O)O)cc1O [3-OH-4-OMe-PPA, 3-hydroxy-4-methoxyphenylpropionic acid] | 12 to 24 h | 2.48 ± 2.69 nmol excreted | 0 to 12 h | 0.82 ± 0.58 nmol excreted | 12 to 24 h | 2.69 ± 1.83 nmol excreted |  |  |  |  |
| O=C(O)CNC(=O)c1cccc(O)c1 [3-OH-hippuric acid, 3-hydroxyhippuric acid] |  | 26.3 ± 7.6 nmol excreted | np | np |  | 31.8 ± 8.1 nmol excreted | 12 to 24 | 12 to 24 |  |  |
| O=C(O)Cc1ccc(O)cc1 [4-OH-PAA, 4-hydroxyphenylacetic acid] |  | 0.51 ± 0.16 nmol excreted |  | 0.30 ± 0.12 nmol excreted |  | 0.84 ± 0.38 nmol excreted | 0 to 24 | 0 to 24 | 0 to 24 |  |
| O=C(O[C@@H]1O[C@H](C(=O)O)[C@@H](O)[C@H](O)[C@H]1O)c1ccccc1 [BzA glucuronide] | 12 to 24 h | 0.76 ± 0.17 nmol excreted | np | np | 12 to 24 h | 0.85 ± 0.17 nmol excreted |  |  |  |  |
| O=C(O)/C=C/c1ccc(O)c(O)c1 [Caffeic acid, caffeic acid] |  | 3.97 ± 1.38 nmol excreted | np | np |  | 3.18 ± 1.64 nmol excreted | 0 to 12 | 0 to 12 |  |  |
| O=C(/C=C/c1ccc(O)c(O)c1)O[C@@H]1C[C@](O)(C(=O)O)C[C@@H](O)[C@H]1O [Chlorogenic acid, chlorogenic acid] |  | 238 ± 67 nmol excreted | np | np |  | 66.1 ± 23.4 nmol excreted | 0 to 24 | 0 to 12 |  |  |
| OC[C@H]1O[C@@H](Oc2cc3c(O)cc(O)cc3[o+]c2-c2ccc(O)c(O)c2)[C@H](O)[C@@H](O)[C@H]1O [Cyanidin Galactoside] | 0 to 12 h | 0.46 ± 0.09 nmol excreted | np | np | 0 to 12 h | 0.19 ± 0.04 nmol excreted |  |  |  |  |
| OC[C@H]1O[C@@H](Oc2cc3c(O)cc(O)cc3[o+]c2-c2ccc(O)c(O)c2)[C@H](O)[C@@H](O)[C@@H]1O [Cyanidin Glucoside, cyanidin-3-O-glucoside] | 0 to 12 h | 0.22 ± 0.04 nmol excreted | np | np | 0 to 24 h | 0.11 ± 0.05 nmol excreted |  |  |  |  |
| OC[C@H]1O[C@@H](Oc2cc3c(O)cc(O)cc3[o+]c2-c2cc(O)c(O)c(O)c2)[C@H](O)[C@@H](O)[C@H]1O [Delphinidin Galactoside] | 0 to 12 h | 1.74 ± 0.22 nmol excreted | np | np | 0 to 12 h | 0.98 ± 0.20 nmol excreted |  |  |  |  |
| OC[C@H]1O[C@@H](Oc2cc3c(O)cc(O)cc3[o+]c2-c2cc(O)c(O)c(O)c2)[C@H](O)[C@@H](O)[C@@H]1O [Delphinidin Glucoside, delphindin-3-O-glucoside] | 0 to 24 h | 0.94 ± 0.22 nmol excreted | np | np | 0 to 24 h | 0.81 ± 0.14 nmol excreted |  |  |  |  |
| COc1cc(-c2[o+]c3cc(O)cc(O)c3cc2O[C@@H]2O[C@H](CO)[C@H](O)[C@H](O)[C@H]2O)cc(OC)c1O [Malvidin Galactoside, malvidin-3-O-galactoside] | 0 to 12 h | 14.2 ± 1.3 nmol excreted | np | np | 0 to 12 h | 7.36 ± 2.00 nmol excreted |  |  |  | ≤ 12 |
| COc1cc(-c2[o+]c3cc(O)cc(O)c3cc2O[C@@H]2O[C@H](CO)[C@@H](O)[C@H](O)[C@H]2O)cc(OC)c1O [Malvidin Glucoside, malvidin-3-O-glucoside] | 0 to 12 h | 10.7 ± 0.9 nmol excreted | np | np | 0 to 12 h | 6.57 ± 0.57 nmol excreted |  |  |  |  |
| COc1cc(-c2[o+]c3cc(O)cc(O)c3cc2OC2OC(CO)C(O)C(O)C2O)cc(O)c1O (stereo not shown) [Petunidin Galactoside, petunidin-3-O-galactoside] | 0 to 12 h | 1.73 ± 0.38 nmol excreted | np | np | 0 to 12 h | 0.49 ± 0.23 nmol excreted |  |  |  |  |
| COc1cc(-c2[o+]c3cc(O)cc(O)c3cc2O[C@@H]2O[C@H](CO)[C@@H](O)[C@H](O)[C@H]2O)cc(O)c1O [Petunidin Glucoside, petunidin-3-O-glucoside] | 0 to 12 h | 0.94 ± 0.19 nmol excreted | np | np | 0 to 12 h | 0.37 ± 0.14 nmol excreted |  |  |  |  |
| O=c1c(O)c(-c2ccc(O)c(O)c2)oc2cc(O)cc(O)c12 [Quercetin, quercetin] |  | 11.5 ± 4.0 nmol excreted |  | 3.88 ± 1.46 nmol excreted |  | 10.1 ± 7.4 nmol excreted | 0 to 12 | 0 to 12 | 0 to 12 |  |
| Caffeic acid sulfate | 0 to 12 h | 9.74 ± 0.78 nmol excreted | np | np | 0 to 12 h | 6.43 ± 4.57 nmol excreted |  |  |  |  |
| delphinidin sulfate | 0 to 24 h | 20.2 ± 2.4 nmol excreted | np | np | 0 to 24 h | 18.2 ± 2.4 nmol excreted |  |  |  |  |
| petunidin glucuronide | 0 to 12 h | 3.49 ± 0.46 nmol excreted | np | np | 0 to 12 h | 0.92 ± 0.24 nmol excreted |  |  |  |  |
